According to patent publication US9717752B2, “Uses of antagonists of hyaluronan signaling” (The United States of America, as represented by the …, priority 2012, dated 2017):
“Also recorded” adds a separate entry of the source.

Tests used:
[1] = system: mice exposed to sHA; experiment: In vivo model of airway contraction (AHR) after sHA instillation, airway resistance to methacholine; conditions: 50 μl of 1-2 mg/ml by oropharyngeal aspiration, methacholine challenge 2 hours after sHA, compared to sHA with saline
Procedure: (§1) Measurements of respiratory mechanics were made by the forced oscillation technique. Response to aerosolized methacholine (0, 10 mg/ml, 25 mg/ml, and 100 mg/ml) was determined by resistance measurements every 30 seconds for 5 minutes, ensuring the parameters calculated had peaked. The resistance measurements were then averaged at each dose and graphed (RT, measured in cm H2O/ml/s) along with the initial baseline measurement.
(§2) In the following studies to evaluate the effect of heparosan, mice were exposed to one of several agents: sHA (50 μl of a 1 mg/ml sHA solution in PBS—sonicated Healon, AMO Inc., Santa Ana, Calif.); 1 ppm ozone (O3) for 4 hours; or inhaled OVA (sensitization with i.p. injection of 10 μg OVA (Sigma, St. Louis, Mo.), adsorbed to 2 mg of alum adjuvant (Pierce Biotechnology, Inc., Rockford, Ill.) diluted in saline on days 0 and 7, 60 minutes inhaled exposure to 1% OVA aerosol on days 14 and 15). Mice were phenotyped for AHR at typical time points for each of these exposures: 2 hours after sHA instillation; 24 hours after ozone exposure; and 48 hours after second OVA exposure. Thirty minutes prior to phenotyping, mice received appropriate treatment (saline, heparosan or heparin) by oropharyngeal aspiration. Mice received 50 μl of a 1-2 mg/ml solution of heparosan or heparin (or 50 μl of saline as a control). […]

[2] = system: mice exposed to ozone; experiment: Murine model of airway contraction after ozone exposure, airway resistance; type: in vivo; conditions: 1 ppm ozone for 4 hours, given 24 hours after exposure, 50 μl of 1-2 mg/ml by oropharyngeal aspiration, compared to saline placebo
Procedure: as §1, §2

[3] = system: mice sensitized to ovalbumin and exposed to inhaled ovalbumin; experiment: Murine model of airway contraction in allergic asthma (ovalbumin), airway resistance; type: in vivo; conditions: given 48 hours after OVA exposure, 50 μl of 1-2 mg/ml by oropharyngeal aspiration, compared to saline placebo
Procedure: as §1, §2

[4] = system: human airway smooth muscle cells (ASMC); experiment: Gel contraction: human airway smooth muscle cells in 3-dimensional collagen-hyaluronan gels; type: cell-based
Procedure: The in vitro effect of heparosan on human airway smooth muscle cells (ASMC) was tested in 3-dimensional, collagen-hyaluronan gels. Collagen-only gels were used as controls. Human ASMC (6×10^5 cells/ml) in basal media were seeded into the gel solution and incubated up to 36 hours at 37° C. in 5% CO2. Gels were scanned at varying time intervals to monitor gel contraction. After 24 hours, the gels were fixed with 4% paraformaldehyde and stained with phalloidin and DAPI. In some experiments, the ROCK inhibitor Y-27632 was added to the gel. Change in gel area was measured by NIH Image J software.

[5] = system: mice exposed to inhaled endotoxin (LPS); experiment: Murine model of inflammatory asthma (inhaled endotoxin/LPS), airway resistance; type: in vivo; conditions: for airway resistance after inhaled endotoxin (LPS) exposure: LPS+oHA, 50 μl of 1.5 mg/ml oHA by oropharyngeal aspiration after exposure
Procedure: as §1
In the following studies to evaluate the effect of oHA, mice were exposed to sHA (50 μl of a 1 mg/ml sHA solution in PBS—sonicated Healon, AMO Inc., Santa Ana, Calif.) or inhaled endotoxin (5 μg/m^3) over 2.5 hours. Mice were phenotyped for AHR at typical time points for each of these exposures: 2 hours after sHA instillation; or 4 hours after endotoxin exposure. Thirty minutes prior to phenotyping, mice received appropriate treatment (saline, vehicle or oHA) by oropharyngeal aspiration. Mice were treated with 50 μl of 1.5 mg/ml oHA. Phenotyping was with invasive airway pressure measurements (FlexiVent™).

[6] = system: mouse tracheal rings; experiment: Tracheal ring assay, in vitro model of mouse airway smooth muscle cell contractility; type: cell-based; conditions: for effect on sHA-exaggerated contractile response of tracheal rings to carbachol: 1 mg/mL sHA+0.5 mg/mL oHA
Procedure: Airway smooth muscle reactivity was assessed in temperature-controlled (37° C.) organ baths containing Krebs-Henseleit buffer solution of the following composition: 118 mM NaCl, 4.7 mM KCl, 2.5 mM CaCl2, 1.2 mM MgSO4, 25 mM NaHCO3, 1.2 mM KH2PO4, and 11.1 mM glucose, continuously bubbled with 5% CO2 and 95% O2. Tracheal segments were mounted in organ baths between two metal hooks and connected to a K30 force displacement transducer under approximately 5-mN resting tension. Isometric contractile responses were recorded after dosing with carbachol (a bronchial constrictor) and isoproterenol (a bronchial dilator).

Substance | airway resistance after sHA exposure [1] | airway resistance after ozone exposure [2] | airway resistance in ovalbumin allergic asthma model [3] | effect on sHA-induced contraction of gel containing human ASMC ([4]; collagen-hyaluronan gel, change in gel area) | airway resistance after inhaled endotoxin (LPS) exposure [5] | effect on sHA-exaggerated contractile response of tracheal rings to carbachol [6] | airway contractility without LPS exposure ([5]; saline+oHA (oHA alone)) | contraction of gel containing human ASMC ([4]; sHA alone, versus collagen-only control gels) | contractile response of tracheal rings to carbachol ([6]; 1 mg/mL sHA versus 0 mg/mL sHA)
heparin [reference compound] | increased the development of airway resistance | had no effect on airway resistance beyond saline | increased the development of airway resistance | – | – | – | – | – | –
heparosan | decreased the development of airway resistance | led to decreased airway resistance compared to saline placebo treatment | led to decreased airway resistance compared to saline placebo treatment | inhibited this action, and was indistinguishable from control cells | inhibits inflammatory AHR | ameliorates tracheal ring contractility | – | – | –
hyaluronan oligosaccharide [oHA] | – | – | – | – | led to decreased airway resistance | inhibited this action | had no effect on airway contractility | – | –
short fragment hyaluronan [sHA, reference compound] | – | – | – | – | – | – | – | led to rapid contraction of a gel containing human ASMC; also recorded: led to rapid contraction of a gel containing haSMC | led to an exaggerated contractile response of mouse tracheal rings to the constrictor substance carbachol
